The source of these data is publication PMC10865860 (mBio, 2023).

The assay relates to SARS-CoV-2 Omicron subvariant XBB.1.16. Also on record: species or system K18-hACE2 mice. As to conditions: mouse, in vivo.

For `COc1ccccc1C1CC1COC(=O)NC(CC(C)C)C(=O)NC(CC1CCNC1=O)C(O)S(=O)(=O)O` (stereo not shown) [11d], the “body weight loss compared to vehicle” value is “reduced weight losses”; the “lung edema average score” value is below 0.5; the “viral titers in nasal wash, nasal turbinate, and lungs compared to vehicle” value was “significantly lower”. The “fatality by 14 days after virus infection” value (ip) came out at 20%.
